Values quoted from earlier work, collected in patent publication US20220339166A1, “POST COVID19 VACCINE REMEDIES” (priority 2021, published 2022).
Where two headings read alike, the source gives them in different places.

What was measured:
[1] = system: mouse bone marrow; conditions: in vivo
[2] = biological target: ODC (Homo sapiens, UniProt P11926)
[3] = system: Trypanosoma cruzi
[4] = biological target: ACE2 (Homo sapiens, UniProt Q9BYF1)
Sequence of ACE2 (Q9BYF1 18-805): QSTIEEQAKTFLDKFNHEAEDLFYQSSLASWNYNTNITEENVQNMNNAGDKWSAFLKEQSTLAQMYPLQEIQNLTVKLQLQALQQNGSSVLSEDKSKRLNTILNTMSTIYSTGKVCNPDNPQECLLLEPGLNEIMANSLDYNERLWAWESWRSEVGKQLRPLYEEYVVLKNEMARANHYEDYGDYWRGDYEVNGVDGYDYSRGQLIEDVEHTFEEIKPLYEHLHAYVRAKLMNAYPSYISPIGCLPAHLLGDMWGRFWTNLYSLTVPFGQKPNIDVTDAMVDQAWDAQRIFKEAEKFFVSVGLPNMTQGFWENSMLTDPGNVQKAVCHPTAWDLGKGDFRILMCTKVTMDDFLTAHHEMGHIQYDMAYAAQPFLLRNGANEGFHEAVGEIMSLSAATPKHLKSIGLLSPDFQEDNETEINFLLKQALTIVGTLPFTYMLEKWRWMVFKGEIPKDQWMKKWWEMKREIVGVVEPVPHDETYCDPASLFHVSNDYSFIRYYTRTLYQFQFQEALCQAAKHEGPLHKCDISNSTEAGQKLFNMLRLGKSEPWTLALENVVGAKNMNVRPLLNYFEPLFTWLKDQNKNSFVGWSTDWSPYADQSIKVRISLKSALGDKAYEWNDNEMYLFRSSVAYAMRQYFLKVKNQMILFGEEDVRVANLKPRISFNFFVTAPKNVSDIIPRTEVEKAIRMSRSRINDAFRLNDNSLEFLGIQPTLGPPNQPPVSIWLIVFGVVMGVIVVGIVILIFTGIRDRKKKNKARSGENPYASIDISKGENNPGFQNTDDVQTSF

Sequence of ODC (P11926 whole entry): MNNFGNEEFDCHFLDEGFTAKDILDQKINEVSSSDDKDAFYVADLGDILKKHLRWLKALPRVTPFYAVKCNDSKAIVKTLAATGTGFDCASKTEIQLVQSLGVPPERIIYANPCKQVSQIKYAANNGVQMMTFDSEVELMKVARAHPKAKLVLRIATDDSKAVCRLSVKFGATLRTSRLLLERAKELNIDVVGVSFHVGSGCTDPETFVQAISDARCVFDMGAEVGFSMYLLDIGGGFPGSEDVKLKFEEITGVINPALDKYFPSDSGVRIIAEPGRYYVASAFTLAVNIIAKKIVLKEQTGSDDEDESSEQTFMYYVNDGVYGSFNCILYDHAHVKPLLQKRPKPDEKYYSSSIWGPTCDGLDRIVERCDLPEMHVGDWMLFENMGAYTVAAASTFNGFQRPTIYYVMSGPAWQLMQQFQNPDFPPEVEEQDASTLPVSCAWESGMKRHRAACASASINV

For `NCCS` [Cysteamine], the DNA synthesis [1] is listed as “inhibits DNA synthesis”.

In the case of `NCCCC(N)(C(=O)O)C(F)F` (stereo not drawn) [DFMO], the “stalls DNA synthesis” value [2] is given as 70-80%.

In the case of `O=C(Cn1ccnc1[N+](=O)[O-])NCc1ccccc1` [benznidazole], the effective in curing ([3]; given soon after infection, at the onset of the acute phase) is listed as about 100%.

In the case of `NCCCC[C@H](N)C(=O)O` [lysine], the “reduction of ACE2 affinity and interference with fusion domain for S1 spike protein” value [4] is listed as 10%.

For `CC1CS(=O)(=O)CCN1/N=C/c1ccc([N+](=O)[O-])o1` (stereo not drawn) [nifurtimox], the effective in curing ([3]; in vivo) is listed as about 100%.

In the case of `O=C([O-])O.[Na+]` [sodium bicarbonate], the “reduction of ACE2 affinity and interference with fusion domain for S1 spike protein” value [4] is listed as 17%.
